Data published in paper PMC9603181, “RNA-Dependent RNA Polymerase of the Second Human Pegivirus Exhibits a High-Fidelity Feature” (Microbiology Spectrum, 2022).

Key:
Assay type in all cases: biochemical
HCV NS5B (HCV RdRp) [1] = target: T1, HCV NS5B (HCV RdRp) (Orthohepacivirus hominis, UniProt A0A140D8J5); assay: two-step single-nucleotide-incorporation assay, urea-PAGE, Stain-All; conditions: T32 RNA template, pGG primer, pH 6.5, 30 C; sof-TP dose response from 50 uM; UTP analogue, chain terminator
T1 construct: NS5B residues 1-570 (SMSY to ARFR) of the genome polyprotein, C-terminal truncation, C-terminal His6 tag kept, pET-26b, E. coli BL21(DE3)

[2] = target: T2, HPgV-2 NS5B (HPgV-2 RdRp) (Human hepegivirus, UniProt A0A2L0ARU6); assay: two-step single-nucleotide-incorporation assay, time course, urea-PAGE, Stain-All; conditions: T30/pGG, CTP 500 uM as only step 2 substrate, Mg2+/Mn2+, pH 6.5, 30 C
T2 construct: NS5B residues 1-551 (QSYN to GASR) of the genome polyprotein, C-terminal truncation, C-terminal His6 tag kept, pET-26b, E. coli BL21(DE3)

HCV NS5B (HCV RdRp) [3] = target: T1, HCV NS5B (HCV RdRp); assay: as above; conditions: T30/pGG, CTP 500 uM as only step 2 substrate, no Mn2+, pH 6.5, 30 C

Row | Structure (SMILES) | two-step single-nucleotide-incorporation assay, urea-PAGE, Stain-All (HCV NS5B (HCV RdRp) [1]) | two-step single-nucleotide-incorporation assay, time course, urea-PAGE, Stain-Al [2] | two-step single-nucleotide-incorporation assay, time course, urea-PAGE, Stain-Al (HCV NS5B (HCV RdRp) [3])
1 | C[C@@]1(F)[C@H](O)[C@@H](COP(=O)(O)OP(=O)(O)OP(=O)(O)O)O[C@H]1n1ccc(=O)[nH]c1=O [PSI-7409] | a clear P9S band was observed in the presence of HCV NS5B |  | 
2 | Nc1ccn([C@@H]2O[C@H](COP(=O)(O)OP(=O)(O)OP(=O)(O)O)[C@@H](O)[C@H]2O)c(=O)n1 [CTP] |  | no significant difference in the synthesis of the correct P10 between HCV and HPgV-2 NS5B | no significant difference in the synthesis of the correct P10 between HCV and HPgV-2 NS5B
